Results published in patent US20240182465A1 (GENFLEET THERAPEUTICS (SHANGHAI) INC., priority 2021, published 2024).
Where a name gives a salt, the structure may show the parent alone.

Experiments:
[1] = target: T1, HPK1 (Homo sapiens, UniProt Q92918); assay: HPK1 kinase activity assay (ADP-Glo); conditions: HPK1 Kinase activity IC50 (nM), 1 nM HPK1, 10 μM ATP, 0.1 μg/μL MBP
T1 sequence (Q92918 1-346 limits assumed): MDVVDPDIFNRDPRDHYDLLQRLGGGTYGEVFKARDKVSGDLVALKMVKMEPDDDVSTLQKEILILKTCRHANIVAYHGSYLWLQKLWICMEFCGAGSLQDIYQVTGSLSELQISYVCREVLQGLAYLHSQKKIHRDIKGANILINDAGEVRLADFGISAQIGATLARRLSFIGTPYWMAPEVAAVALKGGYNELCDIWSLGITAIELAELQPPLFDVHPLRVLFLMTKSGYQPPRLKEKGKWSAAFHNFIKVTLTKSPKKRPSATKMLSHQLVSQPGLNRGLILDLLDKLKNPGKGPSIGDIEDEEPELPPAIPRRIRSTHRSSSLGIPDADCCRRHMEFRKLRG
Procedure: Preparation of buffer: 1× reaction buffer (40 mM Tris-HCl, 20 mM MgCl2, 0.01% Brij35, 50 μM DTT, 0.1 mg/ml BSA) was prepared using sterile water, which was prepared and used on the day of the experiment.
Preparation of 1000× drug stock plate: a 1000× compound stock plate was prepared. […] The compound stock plate was sealed with a sealing film and stored in a −20° C. refrigerator for later use.
Compound preparation and dosing: the 1000× drug stock plate was taken and melted at room temperature in the dark. Then 5× drug intermediate plate was prepared using reaction buffer and mixed well. 2 μL was transferred from the 5× drug intermediate plate into a 384-well plate, and negative control well and positive control well (in which 2 μL reaction buffer containing 0.5% DMSO was added) were set. Each point was repeated twice.
Preparation and incubation of reaction mixture: HPK1 protein was diluted to a 2.5× working solution with reaction buffer. 4 μL 2.5×HPK1 protein was added to each well containing test compound and positive control well, and 4 μL of reaction buffer without HPK1 protein was added to the negative control well. The obtained mixture was centrifuged at 1000 rpm for 1 min and then incubated in a 20° C. incubator for 15 min. A 2.5× mixed working solution of MBP protein and ATP was prepared with reaction buffer at concentrations of 0.5 μg/μL and 50 PM, respectively. 4 μL of the mixed working solution of MBP and ATP was added to each well, centrifuged at 1000 rpm for 1 min, and then incubated in a 20° C. incubator for 90 min.
ADP-Glo detection and reading plate: 10 μl ADP-Glo was added to each well of the test plate. The resulting mixture was centrifuged at 1000 rpm for 1 min and incubated in a 20° C. incubator for 60 min. Then 10 μL of the final incubation solution was transferred from the test plate to a new 384-well plate. 10 μL of kinase detection reagent was added to each well, centrifuged at 400 g for 1 min, and incubated in a 20° C. incubator for 60 min. Chemiluminescent signals were read by a microplate reader.

[2] = target: HPK1 (Homo sapiens, UniProt Q92918); assay: SLP76 phosphorylation assay (intracellular HPK1 inhibitory activity, p-SLP76 Ser376 sandwich ELISA); conditions: p-SLP76 IC50(nM), Jurkat, Clone E6-1 cells; 1 h compound pre-incubation, anti-CD3 beads stimulation 20 min; SLP76 phosphorylation at S376
Target sequence in this assay (Q92918 whole entry): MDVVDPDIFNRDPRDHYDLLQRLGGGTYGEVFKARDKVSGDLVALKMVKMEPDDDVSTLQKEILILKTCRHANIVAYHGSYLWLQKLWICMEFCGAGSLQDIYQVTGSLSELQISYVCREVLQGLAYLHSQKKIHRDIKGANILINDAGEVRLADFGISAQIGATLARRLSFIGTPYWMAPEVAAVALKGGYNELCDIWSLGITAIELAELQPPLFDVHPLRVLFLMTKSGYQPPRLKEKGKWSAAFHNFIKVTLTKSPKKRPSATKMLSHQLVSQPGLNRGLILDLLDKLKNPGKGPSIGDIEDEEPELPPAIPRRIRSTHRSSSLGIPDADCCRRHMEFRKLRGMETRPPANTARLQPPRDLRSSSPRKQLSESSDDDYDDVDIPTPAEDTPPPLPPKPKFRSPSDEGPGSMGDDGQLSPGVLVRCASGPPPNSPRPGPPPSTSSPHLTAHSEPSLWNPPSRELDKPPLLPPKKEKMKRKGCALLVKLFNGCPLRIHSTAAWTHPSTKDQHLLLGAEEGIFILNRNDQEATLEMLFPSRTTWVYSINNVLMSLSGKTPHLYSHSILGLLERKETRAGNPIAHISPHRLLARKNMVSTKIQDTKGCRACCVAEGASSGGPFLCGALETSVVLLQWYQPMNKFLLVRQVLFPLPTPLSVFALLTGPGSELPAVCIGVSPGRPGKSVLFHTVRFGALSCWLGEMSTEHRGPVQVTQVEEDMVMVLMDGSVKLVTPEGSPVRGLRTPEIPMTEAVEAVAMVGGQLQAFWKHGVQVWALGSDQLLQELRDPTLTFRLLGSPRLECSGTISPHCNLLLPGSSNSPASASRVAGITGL

Row | Compound | IC50 [1] [nM] | IC50 [2] [nM]
1 | Nc1ncc(-c2cc3c(c([C@@H]4CCCN4)c2)COCC3)cc1-c1nccs1 [Compound Z238, (S)-5-(8-(pyrrolidin-2-yl)isochroman-6-yl)-3-(thiazol-2-yl)pyridin-2-amine] | 1.48 | 354
2 | Cc1c[nH]c2ncc(-c3cc4c(c(C5COC(N)=N5)c3)COCC4)cc12 (stereo not shown) [Compound Z243, 4-[6-(3-methyl-1H-pyrrolo[2,3-b]pyridin-5-yl)isochroman-8-yl]-4,5-dihydrooxazol-2-amine] | 16.5 | 2510
3 | Cc1c[nH]c2ncc(-c3cc4c(c([C@@H]5CCCN5)c3)CN(C(=O)C3(O)CCOCC3)CC4)cc12 [Compound Z244, (S)-(4-hydroxytetrahydro-2H-pyran-4-yl)(6-(3-methyl-11H-pyrrolo[2,3-b]pyridin-5-yl)-8-(pyrrolidin-2-yl)-3,4-dihydroisoquinolin-2(1H)-yl)methanone] | 0.35 | 96.6
4 | COC1(C(=O)N2CCc3cc(-c4cnc5[nH]cc(C)c5c4)cc([C@@H]4CCCN4)c3C2)CC1 [Compound Z245, (S)-(1-methoxycyclopropyl)(6-(3-methyl-1H-pyrrolo[2,3-b]pyridin-5-yl)-8-(pyrrolidin-2-yl)-3,4-dihydroisoquinolin-2(1H)-yl)methanone] | 0.45 | 119
5 | Cc1c[nH]c2ncc(-c3cc4c(c([C@@H]5CCCN5)c3)CN(C(=O)OC3CC3)CC4)cc12 [Compound Z246, (S)-cyclopropyl 6-(3-methyl-1H-pyrrolo[2,3-b]pyridin-5-yl)-8-(pyrrolidin-2-yl)-3,4-dihydroisoquinoline-2(1H)-carboxylate] | 0.48 | 279
6 | COCc1cc(N2CCc3cc(-c4cnc5[nH]cc(C)c5c4)cc([C@@H]4CCCN4)c3C2)ccn1 [Compound Z247, (S)-2-(2-(methoxymethyl)pyridin-4-yl)-6-(3-methyl-1H-pyrrolo[2,3-b]pyridin-5-yl)-8-(pyrrolidin-2-yl)-1,2,3,4-tetrahydroisoquinoline] | 0.61 | 151
7 | Cc1c[nH]c2ncc(-c3cc4c(c([C@@H]5CCCN5)c3)CN(C(=O)NC3CC3)CC4)cc12 [Compound Z250, (S)—N-cyclopropyl-6-(3-methyl-1H-pyrrolo[2,3-b]pyridin-5-yl)-8-(pyrrolidin-2-yl)-3,4-dihydroisoquinoline-2(1H)-carboxamide] | 0.42 | 193
8 | Cc1c[nH]c2ncc(-c3cc4c(c([C@@H]5CCCN5)c3)CN(S(=O)(=O)C3CC3)CC4)cc12 [Compound Z251, (S)-2-(cyclopropylsulfonyl)-6-(3-methyl-1H-pyrrolo[2,3-b]pyridin-5-yl)-8-(pyrrolidin-2-yl)-1,2,3,4-tetrahydroisoquinoline] | 0.49 | 131
9 | CCN1Cc2c(cc(-c3cnc4[nH]cc(C)c4c3)cc2[C@@H]2CCCN2)NC1=O [Compound Z256, (S)-3-ethyl-7-(3-methyl-1H-pyrrolo[2,3-b]pyridin-5-yl)-5-(pyrrolidin-2-yl)-3,4-dihydroquinazolin-2(1H)-one] | 0.8 | 279
10 | COCC(=O)N1Cc2cc(-c3cnc4[nH]cc(C)c4c3)cc([C@@H]3CCCN3)c2C1 [Compound Z261, (S)-2-methoxy-1-(6-(3-methyl-1H-pyrrolo[2,3-b]pyridin-5-yl)-4-(pyrrolidin-2-yl)isoindolin-2-yl)ethan-1-one hydrochloride] | 2.63 | 842
11 | Cc1cc(C(=O)N2Cc3cc(-c4cnc5[nH]cc(C)c5c4)cc([C@@H]4CCCN4)c3C2)cc(C)n1 [Compound Z262, (S)-(2,6-dimethylpyridin-4-yl)(6-(3-methyl-1H-pyrrolo[2,3-b]pyridin-5-yl)-4-(pyrrolidin-2-yl)isoindolin-2-yl)methanone hydrochloride] | 1.72 | 627
12 | Cc1c[nH]c2ncc(-c3cc4c(c([C@@H]5CCCN5)c3)CN(C(=O)[C@H](O)c3ccccc3)CC4)cc12 [Compound Z289, (R)-2-hydroxy-1-(6-(3-methyl-1H-pyrrolo[2,3-b]pyridin-5-yl)-8-((S)-pyrrolidin-2-yl)-3,4-dihydroisoquinolin-2(1H)-yl)-2-acetophenone] | 1.35 | 378
13 | Cc1c[nH]c2ncc(-c3cc4c(c([C@@H]5CCCN5)c3)CN(C(=O)[C@@H](O)c3ccccc3)CC4)cc12 [Compound Z290, (S)-2-hydroxy-1-(6-(3-methyl-1H-pyrrolo[2,3-b]pyridin-5-yl)-8-((S)-pyrrolidin-2-yl)-3,4-dihydroisoquinolin-2(1H)-yl)-2-acetophenone] | 0.77 | 272

Second part, the compound after the results:

Row | IC50 [1] [nM] | IC50 [2] [nM] | Compound
14 | 0.44 | 162 | Cc1cc(C(=O)N2CCc3c(cc(-c4cnc5[nH]cc(C)c5c4)cc3[C@@H]3CCCN3)C2)cc(C)n1 [Compound Z279, (S)-(2,6-dimethylpyridin-4-yl)(7-(3-methyl-1H-pyrrolo[2,3-b]pyridin-5-yl)-5-(pyrrolidin-2-yl)-3,4-dihydroisoquinolin-2(1H)-yl)methanone]
15 | 0.38 | 471 | Cc1nn(C)cc1C(=O)N1CCc2cc(-c3cnc4[nH]cc(C)c4c3)cc([C@@H]3CCCN3)c2C1 [Compound Z282, (S)-(1,3-dimethyl-1H-pyrazol-4-yl)(6-(3-methyl-1H-pyrrolo[2,3-b]pyridin-5-yl)-8-(pyrrolidin-2-yl)-3,4-dihydroisoquinolin-2(1H)-yl)methanone]
16 | 0.3 | 286 | Cc1ncncc1C(=O)N1CCc2cc(-c3cnc4[nH]cc(C)c4c3)cc([C@@H]3CCCN3)c2C1 [Compound Z283, (S)-(6-(3-methyl-1H-pyrrolo[2,3-b]pyridin-5-yl)-8-(pyrrolidin-2-yl)-3,4-dihydroisoquinolin-2(1H)-yl) (4-methylpyrimidin-5-yl)methanone]
17 | 0.91 | 323 | Cc1c[nH]c2ncc(-c3cc4c(c([C@@H]5CCCN5)c3)CCN(C(=O)[C@@](C)(O)C(F)(F)F)C4)cc12 [Compound Z285, (R)-3,3,3-trifluoro-2-hydroxy-2-methyl-1-(7-(3-methyl-1H-pyrrolo[2,3-b]pyridin-5-yl)-5-((S)-pyrrolidin-2-yl)-3,4-dihydroisoquinolin-2(1H)-yl)propan-1-one]
18 | 0.87 | 239 | Cc1c[nH]c2ncc(-c3cc4c(c([C@@H]5CCCN5)c3)CCN(C(=O)[C@](C)(O)C(F)(F)F)C4)cc12 [Compound Z285-1, (S)-3,3,3-trifluoro-2-hydroxy-2-methyl-1-(7-(3-methyl-1H-pyrrolo[2,3-b]pyridin-5-yl)-5-((S)-pyrrolidin-2-yl)-3,4-dihydroisoquinolin-2(1H)-yl)propan-1-one]
19 | 0.6 | 162 | Cc1c[nH]c2ncc(-c3cc4c(c([C@@H]5CCCN5)c3)CN(c3ccncc3)CC4)cc12 [Compound Z291, (S)-6-(3-methyl-1H-pyrrolo[2,3-b]pyridin-5-yl)-2-(pyridin-4-yl)-8-(pyrrolidin-2-yl)-1,2,3,4-tetrahydroisoquinoline]
20 | 0.97 | 272 | CCN1Cc2cc(-c3cnc4[nH]cc(C)c4c3)cc([C@@H]3CCCN3)c2CC1=O [Compound Z292, (S)-2-ethyl-7-(3-methyl-1H-pyrrolo[2,3-b]pyridin-5-yl)-5-(pyrrolidin-2-yl)-1,4-dihydroisoquinolin-3(2H)-one]
